In ChEMBL document CHEMBL6127025, “Discovery of a potent, selective, and orally available EGFR C797S mutant inhibitor (DS06652923) with in vivo antitumor activity” (Bioorg Med Chem, 2024):
≈ marks a conversion by molar mass, not a printed value. Blank lines part the entries; values can stand above or below the molecule they belong to.

Assays:
[1] = Apparent permeability in MDCK cells; format: ADME, cell-based, Canis lupus familiaris; details: dog
[2] = Plasma protein binding in human; format: ADME, cell-free; details: read-out: PPB
[3] = Solubility of compound at pH 6.8; format: physicochemical; details: buffer
[4] = Metabolic stability in human liver microsomes assessed as compound remaining; format: ADME, Microsome
BaF3 [5] = assay: Anti-proliferative activity against mouse BaF3 cells expressing EGFR L858R/T790M/C797S mutant incubated for 3 days by Cell Titer Glo 2.0 assay; format: functional; details: BaF3, 72 h, time 3 day
[6] = Plasma protein binding in mouse; format: ADME, cell-free; details: read-out: PPB
BaF3 [7] = assay: Anti-proliferative activity against mouse BaF3 cells expressing wild-type EGFR incubated for 3 days by Cell Titer Glo 2.0 assay; format: functional; details: BaF3, 72 h, time 3 day
[8] = Solubility of compound at pH 1.2; format: physicochemical; details: buffer
[9] = Metabolic stability in mouse liver microsomes assessed as compound remaining; format: ADME, Microsome
BaF3 [10] = assay: Anti-proliferative activity against mouse BaF3 cells expressing EGFR […]/T790M/C797S mutant incubated for 3 days by Cell Titer Glo 2.0 assay; format: functional; details: BaF3, 72 h, time 3 day
[11] = Lipophilicity, logD of compound; format: physicochemical; details: octanol/water
BaF3 [12] = assay: Antitumor activity against mouse BaF3 cells expressing EGFR […]/T790M/[…] mutant allografted in Balb/c nude mouse administered orally twice daily for 5 days consecutively; format: functional, cell-based; details: dose 12.5-25 mg/kg, route po, time 5.0 day
[13] = Toxicity in Balb/c nude mouse allografted with mouse BaF3 cells expressing EGFR […]/T790M/[…] mutant assessed as signs of toxicity at 12.5 to 25 mg/kg, po bid for 5 days consecutively; format: organism-based; details: in vivo, 120 h, dose 12.5-25 mg/kg, time 5 day
BaF3 [14] = assay: Antitumor activity against mouse BaF3 cells expressing EGFR […]/T790M/[…] mutant allografted in Balb/c nude mouse administered orally once daily for 5 days consecutively; format: functional, cell-based; details: dose 25-100 mg/kg, route po, time 5.0 day
BaF3 [15] = assay: Antitumor activity against mouse BaF3 cells expressing EGFR […]/T790M/[…] mutant allografted in Balb/c nude mouse at 12.5 mg/kg, po bid for 5 days consecutively relative to control; format: functional; details: BaF3, 120 h, time 5 day, read-out: TGI
BaF3 [16] = assay: Antitumor activity against mouse BaF3 cells expressing EGFR […]/T790M/[…] mutant allografted in Balb/c nude mouse at 25 mg/kg, po qd for 5 days consecutively relative to control; format: functional; details: BaF3, 120 h, time 5 day, read-out: TGI
[17] = Toxicity in Balb/c nude mouse allografted with mouse BaF3 cells expressing EGFR […]/T790M/[…] mutant assessed as body weight loss at 12.5 to 25 mg/kg, po bid for 5 days consecutively; format: organism-based; details: in vivo, 120 h, dose 12.5-25 mg/kg, time 5 day
BaF3 [18] = assay: Antitumor activity against mouse BaF3 cells expressing EGFR […]/T790M/[…] mutant allografted in Balb/c nude mouse at 100 mg/kg, po qd for 5 days consecutively relative to control; format: functional; details: BaF3, 120 h, time 5 day, read-out: TGI
[19] = In vivo inhibition of phosphorylation of EGFR […]/T790M/[…] mutant at Y1068 in mouse BaF3 cells allografted in Balb/c nude mouse at 12.5 to 100 mg/kg, po measured after 6 hrs by Western blot analysis relative to control; format: functional; details: dose 12.5-100 mg/kg
BaF3 [20] = assay: Antitumor activity against mouse BaF3 cells expressing EGFR […]/T790M/[…] mutant allografted in Balb/c nude mouse at 25 mg/kg, po bid for 5 days consecutively relative to control; format: functional; details: BaF3, 120 h, time 5 day, read-out: TGI
[21] = Toxicity in Balb/c nude mouse allografted with mouse BaF3 cells expressing EGFR […]/T790M/[…] mutant assessed as body weight loss at 25 to 100 mg/kg, po qd for 5 days consecutively; format: organism-based; details: in vivo, 120 h, dose 25-100 mg/kg, time 5 day
[22] = Toxicity in Balb/c nude mouse allografted with mouse BaF3 cells expressing EGFR […]/T790M/[…] mutant assessed as signs of toxicity at 25 to 100 mg/kg, po qd for 5 days consecutively; format: organism-based; details: in vivo, 120 h, dose 25-100 mg/kg, time 5 day

Papp [1]: 3.1 ×10⁻⁶ cm/s
fraction unbound [2]: < 0.002
solubility [3]: 15 µg/mL (≈ 25.3 µM)
Stability [4]: 24%
GI50 (BaF3 [5]): 18 nM
fraction unbound [6]: < 0.002
GI50 (BaF3 [7]): 565 nM
solubility [8]: > 1100 µg/mL
Stability [9]: 48%
GI50 (BaF3 [10]): 6.5 nM
logD [11]: 4.4
Structure (SMILES): COc1nn(C2CCN(C)CC2)cc1-c1cnc(Nc2ccnc(-c3cnn(S(=O)(=O)C4CC4)c3)n2)cc1OC(C)C

GI50 (BaF3 [7]): 463 nM
GI50 (BaF3 [10]): 19 nM
Structure (SMILES): CC(C)Oc1cc(Nc2ccnc(-c3cnn(S(=O)(=O)C4CC4)c3)n2)ncc1-c1cnn([C@H]2CCN(C)C2)c1

GI50 (BaF3 [7]): 353 nM
GI50 (BaF3 [10]): 46 nM
Structure (SMILES): CC(C)Oc1cc(Nc2ccnc(-c3cnn(S(=O)(=O)C4CC4)c3)n2)ncc1-c1cnn(C2CCOCC2)c1

GI50 (BaF3 [7]): 2290 nM
GI50 (BaF3 [10]): 168 nM
Structure (SMILES): Cc1nn([C@H]2C[C@H](C)N(C)C2)cc1-c1cnc(Nc2ccnc(-c3cnn(S(=O)(=O)C4CC4)c3)n2)cc1OC(C)C

GI50 (BaF3 [7]): > 10000 nM
GI50 (BaF3 [10]): 601 nM
Structure (SMILES): CC(C)Oc1cc(Nc2ccnc(-c3cnn(S(=O)(=O)C4CC4)c3)n2)ncc1-c1cnn(-c2ccncc2)c1

GI50 (BaF3 [7]): 203 nM
GI50 (BaF3 [10]): 9.6 nM
Structure (SMILES): CC(C)Oc1cc(Nc2ccnc(-c3cnn(S(=O)(=O)C4CC4)c3)n2)ncc1-c1cnn(C2CCN(C)CC2)c1

GI50 (BaF3 [7]): 856 nM
GI50 (BaF3 [10]): 43 nM
Structure (SMILES): CC(C)Oc1cc(Nc2ccnc(-c3cnn(S(=O)(=O)C4CC4)c3)n2)ncc1-c1cn([C@H]2C[C@H](C)N(C)C2)nc1F

Papp [1]: 5.2 ×10⁻⁶ cm/s
fraction unbound [2]: < 0.002
Stability [4]: 1%
GI50 (BaF3 [5]): 23 nM
fraction unbound [6]: < 0.002
GI50 (BaF3 [7]): 574 nM
solubility [8]: > 1100 µg/mL
Stability [9]: 20%
GI50 (BaF3 [10]): 12 nM
logD [11]: 5.4
Structure (SMILES): COc1nn([C@H]2C[C@H](C)N(C)C2)cc1-c1cnc(Nc2ccnc(-c3cnn(S(=O)(=O)C4CC4)c3)n2)cc1OC(C)C

GI50 (BaF3 [7]): 387 nM
GI50 (BaF3 [10]): 26 nM
Structure (SMILES): CC(C)Oc1cc(Nc2ccnc(-c3cnn(S(=O)(=O)C4CC4)c3)n2)ncc1-c1cnn([C@H]2C[C@H](C)N(C)C2)c1

GI50 (BaF3 [7]): 318 nM
GI50 (BaF3 [10]): 21 nM
Structure (SMILES): CC(C)Oc1cc(Nc2ccnc(-c3cnn(S(=O)(=O)C4CC4)c3)n2)ncc1-c1cnn([C@@H]2CCN(C)C2)c1

GI50 (BaF3 [7]): 879 nM
GI50 (BaF3 [10]): 61 nM
Structure (SMILES): CC(C)Oc1cc(Nc2ccnc(-c3cnn(S(=O)(=O)C4CC4)c3)n2)ncc1-c1cnn(C)c1

Papp [1]: 9 ×10⁻⁶ cm/s
fraction unbound [2]: < 0.002
Stability [4]: 18%
GI50 (BaF3 [5]): 13 nM
fraction unbound [6]: < 0.002
GI50 (BaF3 [7]): 760 nM
solubility [8]: 1200 µg/mL (≈ 1910 µM)
Stability [9]: 55%
GI50 (BaF3 [10]): 9.4 nM
logD [11]: 4.6
Structure (SMILES): CC(C)Oc1cc(Nc2ccnc(-c3cnn(S(=O)(=O)C4CC4)c3)n2)ncc1-c1cn(C2CCN(C)CC2)nc1OC(F)F
Activity (BaF3 [12]): Dose-Dependent Effect
Activity [13]: Non-Toxic
Activity (BaF3 [14]): Dose-Dependent Effect
inhibition in vivo at 12.5 mg/kg (BaF3 [15]): 88%
inhibition in vivo at 25 mg/kg (BaF3 [16]): 111%
Activity [17]: Non-Toxic
inhibition in vivo at 100 mg/kg (BaF3 [18]): 127%
inhibition (INH) [19]: 100%
inhibition in vivo at 25 mg/kg (BaF3 [20]): 119%
Activity [21]: Non-Toxic
Activity [22]: Non-Toxic
